The structures appear in SMILES notation. In brackets after ≈: the same amount, converted by molar mass.

This is an account of results in ChEMBL document CHEMBL3044621, “1-(7-Chloroquinolin-4-yl)-2-[(1H-pyrrol-2-yl)methylene]hydrazine: a potent compound against cancer” (Med Chem Res, 2012).

In experiment [1] the test system is HCT-8. Kind of experiment: Cytotoxicity against Homo sapiens (human) HCT8 cells assessed as growth inhibition at 25 ug/ml after 72 hr by MTT assay. In kind it is functional. The settings on record: HCT-8, 72 h, read-out: GI.
The subject of experiment [2] is MDA-MB-435. Kind of experiment: Cytotoxicity against Homo sapiens (human) MDA-MB-435 cells assessed as growth inhibition at 25 ug/ml after 72 hr by MTT assay. In kind it is functional. The settings on record: MDA-MB-435, 72 h, read-out: GI.
Experiment [3] relates to SF-295. Kind of experiment: Cytotoxicity against Homo sapiens (human) SF295 cells assessed as growth inhibition at 25 ug/ml after 72 hr by MTT assay. Format: functional. The settings on record: SF-295, 72 h, read-out: GI.
Experiment [4] concerns HCT-8. Kind of experiment: Cytotoxicity against Homo sapiens (human) HCT8 cells after 72 hr by MTT assay. Format: functional, cell-based. The settings on record: HCT-8, 72 h.
Experiment [5] has as its system SF-295. Kind of experiment: Cytotoxicity against Homo sapiens (human) SF295 cells after 72 hr by MTT assay. Format: functional, cell-based. The settings on record: SF-295, 72 h.
Experiment [6] relates to MDA-MB-435. Kind of experiment: Ratio of doxorubicin IC50 to compound IC50 for Homo sapiens (human) MDA-MB-435 cells. Format: functional.
The subject of the next experiment is HL-60. Kind of experiment: Cytotoxicity against Homo sapiens (human) HL60 cells after 72 hr by MTT assay. In kind it is functional, cell-based. The settings on record: HL-60, 72 h.
In experiment [7] the test system is MDA-MB-435. Kind of experiment: Cytotoxicity against Homo sapiens (human) MDA-MB-435 cells after 72 hr by MTT assay. Format: functional, cell-based. The settings on record: MDA-MB-435, 72 h.

On to `Clc1ccc2c(N/N=C/c3cccs3)ccnc2c1`, for which the inhibition of growth at 25 µg/mL with HCT-8 [1] was found to be 21.1%; in the experiment on MDA-MB-435 [2] it was 21.6%; in the experiment on SF-295 [3], 1.03%.

`O=[N+]([O-])c1ccc(/C=N/Nc2ccnc3cc(Cl)ccc23)s1`: the inhibition of growth at 25 µg/mL is 49% in the experiment with HCT-8 [1], 42.1% in the experiment with MDA-MB-435 [2] and 33.4% in the experiment on SF-295 [3].

`Clc1ccc2c(N/N=C/c3ccco3)ccnc2c1`: the figures for the inhibition of growth at 25 µg/mL in the experiment with HCT-8 [1], in the experiment on MDA-MB-435 [2] and with SF-295 [3] were 53.2%, 68.5% and 61.9%, respectively.

As to `Clc1ccc2c(N/N=C/c3ncc[nH]3)ccnc2c1`, the inhibition of growth at 25 µg/mL stood at 34% in the experiment on HCT-8 [1], 82.6% in the experiment on MDA-MB-435 [2] and 30.2% in the experiment with SF-295 [3].

Turning to `O=[N+]([O-])c1ccc(/C=N/Nc2ccnc3cc(Cl)ccc23)o1`, the inhibition of growth at 25 µg/mL in the experiment on HCT-8 [1] stood at 24.1%; in the experiment with MDA-MB-435 [2], 38%; with SF-295 [3], 7.53%.

The compound `COc1cccc2c1C(=O)c1c(O)c3c(c(O)c1C2=O)C[C@@](O)(C(=O)CO)C[C@@H]3O[C@H]1C[C@H](N)[C@H](O)[C@H](C)O1` [DOXORUBICIN] registered a 50% inhibitory concentration (IC50) in the experiment with HCT-8 [4] of 0.01 µg/mL (≈ 0.0184 µM).

In the case of `Clc1ccc2c(N/N=C/c3ccc[nH]3)ccnc2c1`, the IC50 in the experiment with HCT-8 [4] worked out at 0.441 µg/mL (≈ 1.63 µM); in the experiment with SF-295 [5], 0.527 µg/mL (≈ 1.95 µM); with HL-60, 0.0952 µg/mL (≈ 0.352 µM); with MDA-MB-435 [7], 0.117 µg/mL (≈ 0.431 µM). For the same compound, the inhibition of growth at 25 µg/mL with HCT-8 [1], with MDA-MB-435 [2] and in the experiment on SF-295 [3] was 100% each time. In addition, the “Ratio IC50” value with MDA-MB-435 [6] was 4.
